Laboratory results taken from PubChem BioAssay AID179 (DTP/NCI, 2004).
Calls of active or inactive are those of the source.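 The calls were made as follows: active = compounds giving half or more protection of infected cells from virus-caused growth loss, again on retest; inactive = the rest.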

Tested on: CEM cells HIV-1 protection, formazan growth assay
Assay: NCI AIDS Antiviral Assay
Conditions: for IC50: measured here: growth of uninfected CEM cells
Summary of the method: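 Human CEM cells, uninfected and HIV-1-infected, received five drug concentrations, and growth was read by soluble formazan assay. Compounds giving at least 50% protection were retested; reproducible 100% protection defined confirmed active.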

SMILES	EC50 [µM]	IC50 [µM]	outcome
CS/C(C)=N/OC(=O)NCCCCNc1ccc(N=[N+]=[N-])cc1	> 148	34.7	
Cc1cc(C)c(O)c(CN2CCN(C(C)C)CCN(C(C)C)CC2)c1	> 47.9	13.8	
CCCSc1nn2cc(NC(=O)OC)nc2s1	> 200	2.29	
COc1cc2c(c(OC)c1OC)CCC1C(=O)NN=C21 (centres undefined)	> 912	102	
Cc1cccc(N=C2NC(=O)C(CC(=O)Nc3ccc(Cl)cc3C)S2)c1 (centres undefined)	> 18.6	> 18.6	
COc1ccc(C2Oc3c(cccc3-c3c(-c4ccc(O)cc4)oc4cc(O)cc(O)c4c3=O)C(=O)C2O)cc1O (centres undefined)	> 200	170	
CCOC(=O)Nc1nn(-c2ccc3ccccc3n2)c(=O)[nH]1	> 63.1	10	
O=C(Nc1nc(C23CC4CC(CC(C4)C2)C3)cs1)c1cc2cc([N+](=O)[O-])ccc2oc1=O	> 200	178	
Cn1c(-c2ccc(Br)cc2)cc2[nH]c(=S)nc(N)c2c1=O	> 100	> 100	
CC(=O)Nc1ccc(C(=O)N2N=C(C)/C(=C/c3ccccc3O)C2=O)cc1	> 51.3	> 51.3	
O=C(O)C1CCC(c2ccc(Cl)cc2Cl)=N1 (centres undefined)	> 200	> 200	
OCCOCC#CCOCCO	> 200	> 200	
O=[N+]([O-])c1ccccc1Sc1ccccc1	> 100	79.4	
CC(C)=CCc1c2c(c3occ(-c4ccc(O)c(O)c4)c(=O)c3c1O)C=CC(C)(C)O2	> 200	39.8	
CCc1n[nH]c(=O)n1/N=C/c1c(O)ccc2ccccc12	> 200	> 200	
O=S(=O)(O)c1cc(N=Nc2ccc(S(=O)(=O)c3ccc(N=Nc4cc(S(=O)(=O)O)c5cccnc5c4O)cc3)cc2)c(O)c2ncccc12	6.03	39.8	
O=C(O)Cc1cc(=O)oc2c1ccc1ccccc12	> 200	135	
O=C1c2ccccc2-c2c1c1ccccc1c(=O)n2-c1cccnc1	> 30.9	7.08	

SMILES	EC50 [µM]	IC50 [µM]	outcome
O=C1NC23C4C5C6C4C2(N1)C6C53 (centres undefined)	> 1550	891	
Cc1cc2c(C(C)C)c(O)c(O)c(C=Nc3ccc(N=Nc4ccccc4)cc3)c2c(O)c1-c1c(C)cc2c(C(C)C)c(O)c(O)c(C=Nc3ccc(N=Nc4ccccc4)cc3)c2c1O			inactive
Cc1c(C(=O)Nc2ccc(Cl)c(C(F)(F)F)c2)oc2cc(O)ccc2/c1=N\NC(N)=S	> 525	112	
O=C1C(N=Nc2ccc(Br)cc2)Sc2nc3ccccc3n21 (centres undefined)	> 200	> 200	
CCOC(=O)/C(Cl)=C1\SN(C(=O)OCC)N=C1C	> 102	10.7	
Cn1c2c(c3ccccc31)CCN1OCC=C[C@@H](C(=O)O)[C@@H]21	> 200	> 200	
COc1cc2c(cc1O)-c1[nH]ncc1CCC2	> 43.7	> 43.7	
CO/C=C/CCCN(C1CCCCC1)C(C#N)c1ccccc1 (centres undefined)	> 16.6	> 16.6	
OC(Cc1ccc2ccccc2c1)CN1CCC(c2ccccc2)CC1 (centres undefined)	> 93.3	37.2	
CC1(C)CCC(C)(C)C1C(=O)NC(O)C(=O)O (centres undefined)	> 200	> 200	
c1ccc2c(Nc3ncco3)cccc2c1	> 200	162	
Cc1cc2nc3ccc(=[N+](C)C)cc-3sc2cc1N	> 117	0.676	
Cc1nc(Nc2ccccc2)sc1C(=O)CC(=O)C(=O)Nc1c(C(C)C)cccc1C(C)C	> 77.6	> 77.6	
Cc1ccccc1NC(=O)C(=O)C(C(=O)c1ccccc1F)C1OC(=O)c2ccccc21 (centres undefined)	> 302	51.3	
CCOC(=O)C(NC(=O)c1ccccc1)(Nc1ccc(Cl)cc1C(F)(F)F)C(F)(F)F (centres undefined)	> 200	3.55	
CN(C)/C=N/NC(=O)C(O)(c1ccccc1)c1ccccc1	> 200	> 200	
COc1ccc(/C(Cl)=C/c2cc(OC)ccc2OC)cc1	> 200	13.5	
